“Also recorded” adds a separate entry of the source.
Experiments:
[1] = test system: acute arterial hypotension, caused by prazosin; experiment: Acute arterial hypotension caused by prazosin (Table 3); assay type: in vivo, cats; details: prazosin alone 1 mg/kg i.v.
Protocol: It was of interest to study the influence of S-ethylisothiouronium diethylphosphate the in case of hypotension caused by the injection of a known α1-adreno blocker, namely prazosin. Prazosin was injected singly intravenously at a dose of 1 mg/kg.

[2] = test system: α1-adrenoreceptors; details: cited from earlier work
[3] = test system: arterial blood pressure; experiment: Influence of single intravenous injection on arterial blood pressure, heart rate and respiratory rate in anesthetized cats (Table 1, FIGS. 1-10); assay type: in vivo; details: 5 mg/kg i.v.; for Hypertensive activity (increase of SAP): given as "> SAP by"
Protocol: Experiments were performed on 52 anesthetized (intraperitoneally with 45 mg/kg of sodium pentobarbital) cats of both genders with body mass of 2.8-4.2 kg. Arterial pressure was measured by a mercury pressure gauge; measurements were also performed by ECG. Simultaneously, the respiratory frequency was registered. The hypertensive effect was determined as percent increase relative to the initial level of systolic arterial pressure (SAP). The duration of observation was 1-3 hours; the heart rate (HR) was calculated on the basis of ECG.

[4] = test system: increased oxygen pressure; details: cited from earlier work
[5] = test system: mice exposed to an oxygen pressure of 3 atm; experiment: Survival under oxygen pressure of 3 atm, mice (Table 15); assay type: in vivo, F1 (CBAx57B1); details: mice, 3 atm, 5 hours
Protocol: Animals were exposed to oxygen under increased pressure in a hyperbaric chamber <<Mana-2≤≤ for treatment of infants above 1 year, which was adjusted for the experiments on animals. The hyperbaric chamber design permitted to create excessive pressure up to 3 atm and to observe animal behavior from outside.
The experiments were performed on males of F1 (CBAx57B1) mice line and on males of Wistar rat line. Animals were placed in the hyperbaric chamber in plastic boxes and the atmospheric air was replaced by oxygen. The period of compression-decompression was 10 minutes. The exposure of the animals to an oxygen pressure of 3 atm during a period of 2 hours caused only some increase in their motion activity. Further staying of rats and mice in those conditions led to a decrease in the motion activity, to asphyxia with short periods of excitement and cramps. The death of some animals was registered after 2.5-3 hours, 50% after 4 hours, and 75% of mice and 100% of rats were dead after 5 hours.
When the influence of Difetur and Etyron was studied, the animals were exposed to an oxygen pressure of 3 atm during 5 hours if not otherwise specified. Preparations were injected 5-10 minutes before the session.

[6] = test system: acute arterial hypotension, caused by the hexamethonium administration; experiment: Acute arterial hypotension caused by hexamethonium (Table 5); assay type: in vivo, cats
Protocol: The influence of S-ethylisothiouronium diethylphosphate on the background of arterial hypotension caused by a known ganglion blocker-hexamethonium has been studied in cats. Hexamethonium was injected intra- venously at a dose of 10 mg/kg. Vagus and schiatic nerve stimulation was carried out by electrical pulsator with the above-threshold rectangular pulse current having a duration of 1 msec, irritation time of 10 sec, and frequency of 20 pulses/sec (peripheral section of the vagus nerve), and frequency of 300 pulses/sec (central end of the schiatic nerve).

[7] = listed as S-methylisothiuronium dimethylphosphate
[8] = listed as S-isopropylisothiuronium metaphosphate
[9] = hexamethonium alone 10 mg/kg i.v., 2nd min
[10] = listed as S-isobutylisothiuronium isobutylphosphate
[11] = listed as S-isopropylisothiuronium isopropylphosphite
[12] = listed as S-ethylisothiuronium methylphosphate

COc1cc2nc(N3CCN(C(=O)c4ccco4)CC3)nc(N)c2cc1OC [prazosin, reference compound]
AP after prazosin ([1]; 5th min): 106.3 ± 2.4 mm Hg | HF after prazosin ([1]; 5th min): 156.8 ± 9.0 per min. | Respiratory contraction frequency after prazosin ([1]; 5th min): 13.6 ± 2.9 min⁻¹ | AP decrease ([1]; 5th minute): 51 mm Hg

CNCC(O)c1cccc(O)c1.Cl (centres unmarked) [Mezaton, 1-(m-hydroxyphenyl)-2-methylaminoethanol hydrochloride]
Pharmacological action in words ([2]; in vivo, hydrochloride): selectively stimulates α1-adrenoreceptors; also recorded: practically does not have cardiostimulating effect | Duration of anti-hypotensive effect ([2]; single intravascular injection): approximately 20 minutes

CSC(=N)N [S-methylisothiouronium dimethylphosphate]
Duration of effect [3]: 1.5 h | Hypertensive activity, % (increase relative to the initial level of SAP) [3]: ~30% | Hypertensive activity (increase of SAP) [3, 7]: 27.5 mm Hg | Duration of effect [3, 7]: 1.5 h | Hypertensive activity, % (increase relative to the initial level of SAP) [3, 7]: 20.8%

CCCCSC(=N)N [S-butylisothiouronium dibutylphosphate, S-butylisothiouronium di-butylphosphate]
Duration of effect [3]: 1 h | Hypertensive activity, % (increase relative to the initial level of SAP) [3]: 5.6% | Hypertensive effect in words [3]: slightly increases arterial blood pressure | RR (influence on respiratory rate) [3]: No influence | Time to achieve maximum effect [3]: 30 min | Hypertensive activity (increase of SAP) [3]: 7 mm Hg | Duration of effect ([3]; listed as S-butylisothiuronium dibutylphosphate): up to 1 hour

CC(C)SC(=N)N [S-isopropylisothiouronium metaphosphate]
Duration of effect [3]: ≥ 2 h | Hypertensive effect in words [3]: slowly increases SAP | RR (influence on respiratory rate) [3]: does not influence RR | Time to achieve maximum effect [3]: 15 min | Hypertensive activity (increase of SAP) [3, 8]: 27 mm Hg | Duration of effect [3, 8]: 2 h | Hypertensive activity, % (increase relative to the initial level of SAP) [3, 8]: 20.3% | Influence on HR [3, 8]: Bradycardia | RR (influence on respiratory rate) [3, 8]: Increases | Time to achieve maximum effect [3, 8]: 15 min

Br.CCSC(=N)N [Etyron, S-ethylisothiouronium bromide, reference compound]
Protective activity in words [4]: protective activity under increased oxygen pressure | Number of survived animals ([5]; 10 mg/kg): 70% | Number of survived animals ([5]; 20 mg/kg): 50%

C[N+](C)(C)CCCCCC[N+](C)(C)C [hexamethonium, reference compound]
AP after hexonium injection [6, 9]: 91.0 ± 10.0 mm Hg | HF after hexonium injection [6, 9]: 137.6 ± 13.4 per min. | AP decrease ([6]; hexamethonium alone, 2 minutes): 46%

CC(C)CSC(=N)N [S-isobutylisothiouronium isobutylphosphite]
Duration of effect [3]: about 2 hour | Hypertensive activity, % (increase relative to the initial level of SAP) [3]: 14.8% | Hypertensive effect in words [3]: moderate hypertensive effect | Influence on HR [3]: increasing HR | RR (influence on respiratory rate) [3]: increasing HR and RR | Time to achieve maximum effect [3]: 2 min | Hypertensive activity (increase of SAP) [3]: 22.6 mm Hg | Duration of effect [3, 10]: 2 h | RR (influence on respiratory rate) [3, 10]: Increases

CC(C)SC(=N)N [S-isopropylisothiouronium isopropylphosphite]
Duration of effect [3]: at least 2 hour | Hypertensive activity, % (increase relative to the initial level of SAP) [3]: ~30% | Hypertensive effect in words [3]: one of the most active substances | Influence on HR [3]: Transient bradycardia | RR (influence on respiratory rate) [3]: does not influence RR | Time to achieve maximum effect [3]: second minute | Hypertensive activity (increase of SAP) [3, 11]: 40 mm Hg | Duration of effect [3, 11]: 2 h | Hypertensive activity, % (increase relative to the initial level of SAP) [3, 11]: 28.8% | Influence on HR [3, 11]: Bradycardia | RR (influence on respiratory rate) [3, 11]: No influence | Time to achieve maximum effect [3, 11]: 2 min

CCSC(=N)N [S-ethylisothiouronium metaphosphate]
Duration of effect [3]: 1.5 h | Hypertensive activity, % (increase relative to the initial level of SAP) [3]: 15% | RR (influence on respiratory rate) [3]: does not influence RR | Time to achieve maximum effect [3]: 2 min | Hypertensive activity (increase of SAP) [3]: 25 mm Hg | Hypertensive activity (increase of SAP) [3, 12]: 25 mm Hg | Duration of effect [3, 12]: up to 1 hour | Hypertensive activity, % (increase relative to the initial level of SAP) [3, 12]: 14.8% | Influence on HR [3, 12]: Bradycardia | RR (influence on respiratory rate) [3, 12]: No influence

— patent publication US6160008A, “Pharmaceutical compositions comprising S-alkylisothiouronium derivatives” (priority 1996, dated 2000)
